Source: paper PMC10257182, “Discovery of senolytics using machine learning” (Nature Communications, 2023)
Where a name gives a salt, the structure may show the parent alone. Read-outs that look alike come from different tables or passages of the source.

Legend:
Format in all cases: cell-based, human
[1] = system: non-senescent control IMR90 ER:RAS cells; experiment: Nuclei count (Hoechst, high content imaging) senolytic assay, OIS model, non-senescent control cells; details: Homo sapiens; for viability at 4.677 µM: log (dose) [M] -5.33, 72 h; for viability at 2.188 µM: log (dose) [M] -5.66, 72 h; for viability at 0.2188 µM: log (dose) [M] -6.66, 72 h; for viability at 0.02188 µM: log (dose) [M] -7.66, 72 h; for viability at 4.68 µM: log (dose) [M] -5.33; for viability at 2.19 µM: log (dose) [M] -5.66
Outline: (§1)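 We compared total nuclei counts between senescent and non-senescent IMR90 ER:RAS cells after 72 h compound exposure (10 nM–10 μM). Hoechst staining followed fixation and permeabilisation; ouabain served as senolytic positive control.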

[2] = system: senescent IMR90 ER:RAS cells (4-OHT-induced); experiment: Nuclei count (Hoechst, high content imaging) senolytic assay, oncogene-induced senescence (OIS) model, senescent cells; details: Homo sapiens
Outline: as §1

[3] = system: senescent A549 cells (etoposide-induced); experiment: Nuclei count senolytic assay, therapy-induced senescence (TIS) model, senescent cells; details: Homo sapiens, A549, Senescent cells, mean, read-out: Mean % Cell Survival; for viability at 10 µM: log (dose) [M] -5; for viability at 4.68 µM: log (dose) [M] -5.33; for viability at 2.19 µM: log (dose) [M] -5.66; for viability at 1 µM: log (dose) [M] -6; for viability at 0.468 µM: log (dose) [M] -6.33; for viability at 0.219 µM: log (dose) [M] -6.66; for viability at 0.1 µM: log (dose) [M] -7; for viability at 0.0468 µM: log (dose) [M] -7.33; for viability at 0.0219 µM: log (dose) [M] -7.66; for viability at 0.01 µM: log (dose) [M] -8
Outline: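 Nuclei counting by high-content imaging after 72 h compound treatment of senescent (etoposide-induced) versus control A549 cells. Top dose 10 μM final, lowest 10 nM.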

[4] = IMR-90, 72 h, Control, log (dose) [M] -5, 72 h, mean n=3 (Fig 3C), read-out: Mean % Cell Survival
[5] = IMR-90, 72 h, Control, mean n=3 (Fig 3C), read-out: Mean % Cell Survival
[6] = IMR-90, 72 h, Control, log (dose) [M] -6, 72 h, mean n=3 (Fig 3C), read-out: Mean % Cell Survival
[7] = IMR-90, 72 h, Control, log (dose) [M] -6.33, 72 h, mean n=3 (Fig 3C), read-out: Mean % Cell Survival
[8] = IMR-90, 72 h, Control, log (dose) [M] -7, 72 h, mean n=3 (Fig 3C), read-out: Mean % Cell Survival
[9] = IMR-90, 72 h, Control, log (dose) [M] -7.33, 72 h, mean n=3 (Fig 3C), read-out: Mean % Cell Survival
[10] = IMR-90, 72 h, Control, log (dose) [M] -8, 72 h, mean n=3 (Fig 3C), read-out: Mean % Cell Survival
[11] = IMR-90, Control, log (dose) [M] -5, read-out: % Cell Survival
[12] = IMR-90, Control, read-out: % Cell Survival
[13] = IMR-90, Control, log (dose) [M] -6, read-out: % Cell Survival
[14] = IMR-90, Control, log (dose) [M] -6.33, read-out: % Cell Survival
[15] = IMR-90, 72 h, Senescent, log (dose) [M] -5, 72 h, mean n=3 (Fig 3C), read-out: Mean % Cell Survival
[16] = IMR-90, 72 h, Senescent, log (dose) [M] -5.33, 72 h, mean n=3 (Fig 3C), read-out: Mean % Cell Survival
[17] = IMR-90, 72 h, Senescent, log (dose) [M] -5.66, 72 h, mean n=3 (Fig 3C), read-out: Mean % Cell Survival
[18] = IMR-90, 72 h, Senescent, log (dose) [M] -6, 72 h, mean n=3 (Fig 3C), read-out: Mean % Cell Survival
[19] = IMR-90, 72 h, Senescent, log (dose) [M] -6.33, 72 h, mean n=3 (Fig 3C), read-out: Mean % Cell Survival
[20] = IMR-90, 72 h, Senescent, log (dose) [M] -6.66, 72 h, mean n=3 (Fig 3C), read-out: Mean % Cell Survival
[21] = IMR-90, 72 h, Senescent, log (dose) [M] -7, 72 h, mean n=3 (Fig 3C), read-out: Mean % Cell Survival
[22] = IMR-90, 72 h, Senescent, log (dose) [M] -7.33, 72 h, mean n=3 (Fig 3C), read-out: Mean % Cell Survival
[23] = IMR-90, 72 h, Senescent, log (dose) [M] -7.66, 72 h, mean n=3 (Fig 3C), read-out: Mean % Cell Survival
[24] = IMR-90, 72 h, Senescent, log (dose) [M] -8, 72 h, mean n=3 (Fig 3C), read-out: Mean % Cell Survival
[25] = IMR-90, Senescent cells, log (dose) [M] -6, individual replicates, SUP FIG 4C, read-out: % Cell Survival

Molecule O=c1oc2c(O)c(O)cc3c(=O)oc4c(O)c(O)cc1c4c23 [Ellagic acid, ellagic acid] has a viability at 10 µM [1, 4] of 108%, a viability at 4.677 µM [1, 5] of 92.9% and a viability at 2.188 µM [1, 5] of 111%. It also gave a viability at 1 µM [1, 6] of 105%, a viability at 0.4677 µM [1, 7] of 109% and a viability at 0.2188 µM [1, 5] of 111%. For the same molecule, the viability at 0.1 µM [1, 8] was 102%, the viability at 0.04677 µM [1, 9] was 107% and the viability at 0.02188 µM [1, 5] was 112%. For the same molecule, the viability at 0.01 µM [1, 10] was 104%, the viability at 0.4677 µM ([1]; IMR-90, Control cells, log (dose) [M] -6.33, individual replicates, SUP FIG 4C, read-out: % Cell Survival) was 118% and the viability at 0.1 µM ([1]; IMR-90, Control cells, log (dose) [M] -7, individual replicates, SUP FIG 4C, read-out: % Cell Survival) was 103%. The viability at 10 µM [1, 11] was 133%, the viability at 4.68 µM [1, 12] was 122% and the viability at 2.19 µM [1, 12] was 120%. The viability at 1 µM [1, 13] was 123%, the viability at 0.468 µM [1, 14] was 120% and the viability at 0.219 µM ([1]; IMR-90, Control, log (dose) [M] -6.66, read-out: % Cell Survival) was 122%. For the same molecule, the viability at 0.1 µM ([1]; IMR-90, Control, log (dose) [M] -7, read-out: % Cell Survival) was 130%, the viability at 0.01 µM ([1]; IMR-90, Control, log (dose) [M] -8, read-out: % Cell Survival) was 115% and the viability at 10 µM [2, 15] was 109%. The viability at 4.677 µM [2, 16] was 104%, the viability at 2.188 µM [2, 17] was 113% and the viability at 1 µM [2, 18] was 110%. It also gave a viability at 0.4677 µM [2, 19] of 123%, a viability at 0.2188 µM [2, 20] of 122% and a viability at 0.1 µM [2, 21] of 117%. It also gave a viability at 0.04677 µM [2, 22] of 122%, a viability at 0.02188 µM [2, 23] of 114% and a viability at 0.01 µM [2, 24] of 113%. It also gave a viability at 2.188 µM ([2]; IMR-90, Senescent cells, log (dose) [M] -5.66, individual replicates, SUP FIG 4C, read-out: % Cell Survival) of 108%, a viability at 1 µM [2, 25] of 117% and a viability at 10 µM [3] of 187%. It also gave a viability at 4.68 µM [3] of 175%, a viability at 2.19 µM [3] of 203% and a viability at 1 µM [3] of 186%. For the same molecule, the viability at 0.468 µM [3] was 193%, the viability at 0.219 µM [3] was 167% and the viability at 0.1 µM [3] was 209%. The viability at 0.0468 µM [3] was 241%, the viability at 0.0219 µM [3] was 81.3% and the viability at 0.01 µM [3] was 84.4%.

CC[C@]1(O)C[C@@H]2CN(CCc3c([nH]c4ccccc34)[C@@](C(=O)OC)(c3cc4c(cc3OC)N(C)[C@H]3[C@@](O)(C(=O)OC)[C@H](OC(C)=O)[C@]5(CC)C=CCN6CC[C@]43[C@@H]65)C2)C1 [Vinblastine sulfate, vinblastine sulfate, reference compound] gave a viability at 10 µM [1, 4] of 51.7%, a viability at 4.677 µM [1, 5] of 55.1% and a viability at 2.188 µM [1, 5] of 57.9%. The viability at 1 µM [1, 6] was 76.4%, the viability at 0.4677 µM [1, 7] was 76.9% and the viability at 0.2188 µM [1, 5] was 80.8%. It also gave a viability at 0.1 µM [1, 8] of 104%, a viability at 0.04677 µM [1, 9] of 112% and a viability at 0.02188 µM [1, 5] of 104%. For the same molecule, the viability at 0.01 µM [1, 10] was 105%, the viability at 0.04677 µM ([1]; IMR-90, Control cells, log (dose) [M] -7.33, individual replicates, SUP FIG 4C, read-out: % Cell Survival) was 114% and the viability at 0.01 µM ([1]; IMR-90, Control cells, log (dose) [M] -8, individual replicates, SUP FIG 4C, read-out: % Cell Survival) was 102%. The viability at 10 µM [1, 11] was 46.8%, the viability at 4.68 µM [1, 12] was 42.3% and the viability at 2.19 µM [1, 12] was 47.6%. For the same molecule, the viability at 1 µM [1, 13] was 41.3%, the viability at 0.468 µM [1, 14] was 41.5% and the viability at 10 µM [2, 15] was 54.4%. For the same molecule, the viability at 4.677 µM [2, 16] was 77.2%, the viability at 2.188 µM [2, 17] was 58.1% and the viability at 1 µM [2, 18] was 67.1%. The viability at 0.4677 µM [2, 19] was 61.7%, the viability at 0.2188 µM [2, 20] was 87% and the viability at 0.1 µM [2, 21] was 73.9%. It also gave a viability at 0.04677 µM [2, 22] of 108%, a viability at 0.02188 µM [2, 23] of 59.7% and a viability at 0.01 µM [2, 24] of 92.6%. The viability at 1 µM [2, 25] was 70.9%, the viability at 10 µM ([2]; IMR-90, Senescent, log (dose) [M] -5, read-out: % Cell Survival) was 89.1% and the viability at 4.677 µM ([2]; IMR-90, Senescent, log (dose) [M] -5.33, read-out: % Cell Survival) was 88%. The viability at 2.188 µM ([2]; IMR-90, Senescent, log (dose) [M] -5.66, read-out: % Cell Survival) was 86.9%, the viability at 1 µM ([2]; IMR-90, Senescent, log (dose) [M] -6, read-out: % Cell Survival) was 68.2% and the viability at 0.4677 µM ([2]; IMR-90, Senescent, log (dose) [M] -6.33, read-out: % Cell Survival) was 96.2%. For the same molecule, the viability at 0.2188 µM ([2]; IMR-90, Senescent, log (dose) [M] -6.66, read-out: % Cell Survival) was 103%, the viability at 0.1 µM ([2]; IMR-90, Senescent, log (dose) [M] -7, read-out: % Cell Survival) was 109% and the viability at 0.04677 µM ([2]; IMR-90, Senescent, log (dose) [M] -7.33, read-out: % Cell Survival) was 92.4%. The viability at 0.02188 µM ([2]; IMR-90, Senescent, log (dose) [M] -7.66, read-out: % Cell Survival) was 112%, the viability at 0.01 µM ([2]; IMR-90, Senescent, log (dose) [M] -8, read-out: % Cell Survival) was 114% and the viability at 10 µM [3] was 88.8%. It also gave a viability at 4.68 µM [3] of 83.2%, a viability at 2.19 µM [3] of 90.4% and a viability at 1 µM [3] of 72.2%. For the same molecule, the viability at 0.468 µM [3] was 92.1%, the viability at 0.219 µM [3] was 97.3% and the viability at 0.1 µM [3] was 103%. For the same molecule, the viability at 0.0468 µM [3] was 99.9%, the viability at 0.0219 µM [3] was 103% and the viability at 0.01 µM [3] was 104%.
